Measurements as given in US11266662B2, “Ganaxolone for use in prophylaxis and treatment of postpartum depression” (Marinus Pharmaceuticals, Inc., priority 2018, dated 2022).
≈ marks a conversion by molar mass, not a printed value. Where “and” joins values, the source holds several entries; their conditions need not be identical. Identical values can stand only once.

How the values were obtained:
[1] = human plasma following oral administration; cited from earlier work
rats or mice = assay: Reproductive and developmental toxicity
[2] = tested on: BTBR mouse model of autism; conditions: Kazdoba et al, 2016; cited from earlier work
[3] = tested on: synaptic and extrasynaptic GABAA receptors; assay: Activation of synaptic and extrasynaptic GABAA receptors; conditions: site distinct from the benzodiazepine site
rabbits = assay: Local tolerance study in rabbits; conditions: rabbit, in vivo
[4] = tested on: women with postpartum depression; assay: Phase 2A study Cohort 6: efficacy (HAM-D17, CGI-I, EPDS, STAI6) versus placebo; format: in vivo, human; conditions: for Placebo-adjusted difference, HAM-D17 (LS Mean), early efficacy / Placebo-adjusted difference, HAM-D17 (LS Mean), late efficacy: Cohort 6: IV 20 mg/hr for 6 h then 900 mg orally for 28 days; for Placebo-adjusted difference, HAM-D17 (LS Mean), late efficacy: Day 29
Protocol: Approximately 10-30 subjects are randomized into each cohort.
The primary efficacy endpoint is HAM-D17 total score change from baseline to 60 hours post-infusion (on Day 3) for Cohorts 1-3 and to Day 29 for Cohort 6. The primary analysis in each cohort is done using the mITT set. Although the trial is not powered for inferential analysis and there is no consideration for control of type 1 error across multiple cohorts, a clinically meaningful numeric difference in means of 3-4 points, based on mITT analysis, between ganaxalone and placebo treatment groups is considered an indication of acceptable efficacy and is be the most influential outcome in the overall assessment of the efficacy of ganaxolone in treating PPD.
The trial also evaluates the following secondary endpoints at each post-baseline data collection time point to provide additional evidence of the efficacy of ganaxolone in treating PPD: • Change from baseline in HAM-D17 total score other than at 60 hours post-infusion (on Day 3) for Cohorts 1-3 and to Day 29 for Cohort 6 • Change from baseline in EPDS total score • Change from baseline in STAI6 • CGI-I. Exploratory Endpoints

CYP3A4/5 = assay: Ganaxolone levels in subjects taking strong CYP inducers (carbamazepine and phenytoin); conditions: with strong CYP inducers (carbamazepine and phenytoin)
[5] = 1-year (chronic oral) dog toxicity study; conditions: dog, in vivo, oral, 15 mg/kg/day
dogs = assay: 1-year (chronic oral) dog toxicity study
[6] = tested on: women with postpartum depression; assay: Phase 2A study: safety and tolerability (adverse events); format: in vivo, human
Solubility of ganaxolone = conditions: for solubility: organic solvent or mixture
[7] = Phase 1 study of IV ganaxolone in healthy volunteers (safety, pharmacokinetics, sedation); format: in vivo, human
Protocol: The safety, pharmacokinetics and pharmacodynamics of IV ganaxolone were investigated in healthy 36 volunteers, in which ganaxolone was administered as a bolus dosing (Stage 1) or as a bolus dose followed by a continuous infusion (Stage 2). Ten of the 36 subjects enrolled were women. Stage 1 enrolled and dosed subjects in 4 cohorts (A-D): 6 subjects in Cohort A (10 mg ganaxolone IV bolus in 3 subjects and 30 mg ganaxolone bolus in 3 subjects over 5-minutes), 8 subjects in Cohort B (20 mg ganaxolone bolus over 2-minutes), 8 subjects in Cohort C (30 mg ganaxolone bolus over 1-hour) and 8 subjects in Cohort D (10 mg ganaxolone bolus over 1-hour). Cohorts B, C and D included 2 placebo subjects in each cohort. Stage 2 of the study dosed a total of 6 subjects with a 6 mg bolus followed by a 4-hour infusion at 20 mg/h. Ten of the 36 subjects enrolled in the study were women.
A Phase 1 study in healthy volunteers investigating the safety of IV ganaxolone, infusion of 30 mg/hr for 1 hour, 20 mg over 2 minutes and 20 mg/hr for 4 hours led to peak concentrations of 258, 441 and 215 ng/mL, respectively, without any safety concerns. Sedation was assessed using the Modified Observers Assessment of Alertness/Sedation (MOAAS) scale. On this scale, score 5 indicates no sedation (responds readily to name spoken in normal tone) while score 1 indicates deep sedation (responds only after painful trapezius squeeze). […] The sedation scores reversed quickly after the infusion was stopped. The highest bolus dose tested was 30 mg, which was infused over 5-minutes. This dose led to peak concentration levels (Cmax) of >1,000 ng/mL with no safety concerns (except sedation).

[8] = IV bolus plus continuous IV infusion toxicity in dog, 28 days; conditions: in vivo

CC(=O)[C@H]1CC[C@H]2[C@@H]3CC[C@H]4C[C@](C)(O)CC[C@]4(C)[C@H]3CC[C@]12C [ganaxolone, 3α-hydroxy-3β-methyl-5α-pregnan-20-one]
Half-life [1]: approximately 20 hours
Fertility and early embryonic development (rats or mice; rats): no effects on fertility and early embryonic development
Teratogenicity (rats or mice; rats or mice): not teratogenic
Sociability [2]: improved sociability
Potency and efficacy in activating GABAA receptors [3]: comparable to allopregnanolone
Local tolerance (rabbits): no findings
EPDS and STAI6 versus placebo ([4]; Cohort 6): numeric advantage at all timepoints till Day 29
Placebo-adjusted difference, HAM-D17 (LS Mean), early efficacy ([4]; PP, 6 hours): −3.4
Placebo-adjusted difference, HAM-D17 (LS Mean), early efficacy ([4]; PP, Day 2): −2.7
Placebo-adjusted difference, HAM-D17 (LS Mean), late efficacy ([4]; PP): −2.6
Placebo-adjusted difference, HAM-D17 (LS Mean), early efficacy ([4]; mITT, 6 hours): −2.8
Placebo-adjusted difference, HAM-D17 (LS Mean), early efficacy ([4]; mITT, Day 2): −2.6
Placebo-adjusted difference, HAM-D17 (LS Mean), late efficacy ([4]; mITT): +1
HAMD17 change from baseline, PP analysis and sensitivity by site analyses ([4]; Cohort 6, after Day 2): favors GNX
HAMD17 decrease versus placebo ([4]; Cohort 6, at 6 hours and on Day2, both mITT, PP): favor ganaxolone
CGI-I decrease versus placebo ([4]; Cohort 6, both mITT, PP, early timepoint): favors GNX
HAMD17 mITT analysis at late and intermediate timepoints during oral treatment ([4]; Cohort 6, mITT): not different from placebo
CGI-I versus placebo ([4]; Cohort 6, mITT and PP, Day 2, Day 8, Day 15, Day 29 (p<0.05)): favors GNX at all timepoints
Lowering in overall ganaxolone levels and exposure (CYP3A4/5): ~45%
Cmax [5]: > 1.5 µg/mL
Findings associated with mean Cmax greater than 1500 ng/mL (dogs; 10 and 15 mg/kg/day): increased weight and total plasma cholesterol levels
ECG / heart rate finding (dogs; after 3 months of dosing, in 4 animals (>190 bpm)): transient sinus tachycardia
Mutagenicity (Mutagenicity): No potential for mutagenicity was detected
Serious adverse events or adverse events leading to discontinuation ([6]; Cohort 1: IV 4 mg/hr for 48 h then 2 mg/hr for 12 h, 9 subjects): no serious adverse events or adverse events leading to discontinuation
DC for AE ([6]; Cohort 6): 0 n (%)
Incidence of dizziness ([6]; Cohort 6): 25%
Serious adverse events or adverse events leading to treatment discontinuation ([6]; Cohort 6): no serious adverse events or adverse events leading to treatment discontinuation
TEAE somnolence ([6]; Cohort 6): 0 n (%)
Incidence of somnolence and sedation ([6]; Cohort 6: IV 20 mg/hr for 6 hours and 900 mg orally with dinner): > 30% and 31.3%
Tolerability of oral administration ([6]; Cohort 6, 900 mg orally with dinner, after Day 2): well tolerated
solubility (Solubility of ganaxolone; 95% alcohol): 13000 µg/mL (≈ 39.1 mM)
solubility (Solubility of ganaxolone; polyethylene glycol): 3100 µg/mL (≈ 9.32 mM)
solubility (Solubility of ganaxolone; propylene glycol): 3500 µg/mL (≈ 10.5 mM)
Concentration dissolved (Solubility of ganaxolone; using water soluble beta cyclodextrins): > 1000 µg/mL
Solubility in water (Solubility of ganaxolone; water): insoluble
Peak concentration ([7]; 20 mg over 2 minutes): 441 ng/mL
Peak concentration ([7]; 20 mg/hr for 4 hours): 215 ng/mL
Treatment emergent AEs, seriousness and intensity ([7]; Stages 1 and 2): None of the treatment emergent AEs were serious, and all were of mild intensity
Cmax ([7]; human, in vivo, intravenous, bolus infusion of 30 mg over 5-minutes, read-out: Peak concentration levels (Cmax)): > 1 µg/mL
Peak concentration ([7]; infusion of 30 mg/hr for 1 hour): 258 ng/mL
Modified Observers Assessment of Alertness/Sedation (MOAAS) score ([7]; score 5 = no sedation, 1 = deep sedation): vast majority of the scores were 5
NOAEL at 28 days [8]: 7.2 mg/kg/day
